Test results as given in US20170151333A1, “NOVEL CATIONIC LIPIDS AND METHODS OF USE THEREOF” (PROTIVA BIOTHERAPEUTICS, INC., priority 2010, published 2017).

Test system: Liver ApoB mRNA
Assay: Liver ApoB mRNA knockdown by 1:57 SNALP containing cationic lipid and ApoB siRNA in mice (branched DNA QuantiGene assay)
Format: in vivo
Details: Balb/c mice; for ApoB knockdown relative to PBS control (%): 1:57 SNALP containing the cationic lipid with ApoB siRNA, liver ApoB:GAPD mRNA, 48 h, n = 3; for ApoB silencing activity compared to a SNALP formulation containing the C2K benchmark cationic lipid: 1:57 SNALP with ApoB siRNA, administered at the same dose as C2K SNALP
Description: In some embodiments, siRNA molecules were encapsulated into serum-stable nucleic acid-lipid particles (SNALP) composed of the following lipids: (1) the lipid conjugate PEG2000-C-DMA (3-N-[(-methoxypoly(ethylene glycol)2000)carbamoyl]-1,2-dimyristyloxypropylamine); (2) one or more cationic lipids or salts thereof (e.g., cationic lipids of Formula I of the invention and/or other cationic lipids described herein); (3) the phospholipid DPPC (1,2-dipalmitoyl-sn-glycero-3-phosphocholine) (Avanti Polar Lipids; Alabaster, Ala.); and (4) synthetic cholesterol (Sigma-Aldrich Corp.; St. Louis, Mo.) in the molar ratio 1.4:57.1:7.1:34.3, respectively. In other words, siRNA molecules were encapsulated into SNALP of the following “1:57” formulation: 1.4% PEG2000-C-DMA; 57.1% cationic lipid; 7.1% DPPC; and 34.3% cholesterol. It should be understood that the 1:57 formulation is a target formulation, and that the amount of lipid (both cationic and non-cationic) present and the amount of lipid conjugate present in the formulation may vary. Typically, in the 1:57 formulation, the amount of cationic lipid will be 57.1 mol %±5 mol %, and the amount of lipid conjugate will be 1.4 mol %±0.5 mol %, with the balance of the 1:57 formulation being made up of non-cationic lipid (e.g., phospholipid, cholesterol, or a mixture of the two).
SNALP formulations were administered by IV injection at 0.033 mg/kg or at 0.05 mg/kg into Balb/c mice (n=3 per group). Liver ApoB mRNA levels were evaluated at 48 hours after SNALP administration by a branched DNA assay (QuantiGene assay) to assess ApoB mRNA relative to the housekeeping gene GAPDH.

Row | Compound | ApoB knockdown relative to PBS control (%) (IV 0.033 mg/kg) | ApoB knockdown relative to PBS control (%) (IV 0.05 mg/kg) | ApoB silencing activity compared to a SNALP formulation containing the C2K benchmark cationic lipid
1 | CCCCC/C=C\C/C=C\CCCCCCCCC(CCCCCCCC/C=C\C/C=C\CCCCC)OC(=O)CCCN(C)C [Compound 1, (6Z,9Z,28Z,31Z)-heptatriaconta-6,9,28,31-tetraen-19-yl 4-(dimethylamino)butanoate] | −71 | −81 | unexpectedly improved ApoB silencing activity
2 | CC/C=C\C/C=C\C/C=C\CCCCCCCCC(CCCCCCCC/C=C\C/C=C\C/C=C\CC)OC(=O)CCCN(C)C [Compound 4, LenMC3] | −78 |  | unexpectedly improved ApoB silencing activity
3 | CCC1CC1CC1CC1CC1CC1CCCCCCCCC(CCCCCCCCC1CC1CC1CC1CC1CC1CC)OC(=O)CCCN(C)C (centres unmarked) [Compound 5] | −56 |  | 
4 | CCCCC/C=C\C/C=C\C/C=C\CCCCCC(CCCCC/C=C\C/C=C\C/C=C\CCCCC)OC(=O)CCCN(C)C [Compound 8, γ-LenMC3] | −71 |  | unexpectedly improved ApoB silencing activity
5 | CCCCCC1CC1CC1CC1CC1CC1CCCCCC(CCCCCC1CC1CC1CC1CC1CC1CCCCC)OC(=O)CCCN(C)C (centres unmarked) [Compound 9, CP-γ-LenMC3] | −54 |  | 
6 | CCC/C=C\C/C=C\CCCCCCCCC(CCCCCCCC/C=C\C/C=C\CCCCC)OC(=O)N(C)CCCN(C)C (centres unmarked) [Compound 10, MC3MC] | −50 |  | 
7 | CCCCC/C=C\C/C=C\CCCCCCCCC(CCCCCCCC/C=C\C/C=C\CCCCC)OC(=O)N(C)CCN(C)C [Compound 11, MC2MC] |  | −54 | 
8 | CCCCC/C=C\C/C=C\CCCCCCCCC(CCCCCCCC/C=C\C/C=C\CCCCC)OCCCN(C)C [Compound 13, 3-((6Z,9Z,28Z,31Z)-heptatriaconta-6,9,28,31-tetraen-19-yloxy)-N,N-dimethylpropan-1-amine] | −69 |  | unexpectedly improved ApoB silencing activity
9 | CCCCC/C=C\C/C=C\CCCCCCCCC(CCCCCCCC/C=C\C/C=C\CCCCC)OCCCCN(C)C [Compound 15, MC4 Ether] |  | −77 | unexpectedly improved ApoB silencing activity
10 | CC(C)CCCC(C)CCCC(C)CCCC(C)CCC(CCC(C)CCCC(C)CCCC(C)CCCC(C)C)OC(=O)CCCN(C)C (centres unmarked) [Compound 17, Phytanyl-MC3] |  | −14 | 
11 | CC(C)CCCC(C)CCCC(C)CCCC(C)CCC(CCC(C)CCCC(C)CCCC(C)CCCC(C)C)OC(=O)CCCCN(C)C (centres unmarked) [Compound 18, Phytanyl-MC4] |  | −46 | 
12 | CCCCC/C=C\C/C=C\CCCCCCCCC(CCCCCCCC/C=C\C/C=C\CCCCC)SC(=O)CCCN(C)C [Compound 20, S-(6Z,9Z,28Z,31Z)-heptatriaconta-6,9,28,31-tetraen-19-yl 4 (dimethylamino) butanethioate] |  | −50 | 
13 | CCCCC/C=C\C/C=C\CCCCCCCC(O)C(CCCCCCC/C=C\C/C=C\CCCCC)OC(=O)CCN(C)C (centres unmarked) [Compound 22, (6Z,9Z,27Z,30Z)-19-hydroxyhexatriaconta-6,9,27,30-tetraen-18-yl 3-(dimethylamino)propanoate] | −30 |  | 
14 | CCCCC/C=C\C/C=C\CCCCCCCC(=O)C(CCCCCCC/C=C\C/C=C\CCCCC)OC(=O)CCCN(C)C (centres unmarked) [Compound 23, (6Z,9Z,27Z,30Z)-19-oxohexatriaconta-6,9,27,30-tetraen-18-yl 4-(dimethylamino)butanoate] | −33 |  | 
15 | CCCCC/C=C\C/C=C\CCCCCCCCC(CCCCCCCC/C=C/C/C=C/CCCCC)OC(=O)CCCN(C)C (centres unmarked) [Compound 25, (6Z,9Z,28E,31E)-heptatriaconta-6,9,28,31-tetraen-19-yl 4-(dimethylamino)butanoate] |  | −66 | 
16 | CCCCC/C=C\C/C=C\CCCCCCCCCC(CCCCCCC/C=C\C/C=C\CCCCC)OC(=O)N(CCCCCC)CCCN(C)C (centres unmarked) [Compound 27, (6Z,9Z,28Z,31Z)-heptatriaconta-6,9,28,31-tetraen-18-yl 3-(dimethylamino)propyl(hexyl)carbamate] | −66 |  | unexpectedly improved ApoB silencing activity
17 | CC/C=C\CCCN(CCCN(C)C)C(=O)OC(CCCCCCC/C=C\C/C=C\CCCCC)CCCCCCCCC/C=C\C/C=C\CCCCC (centres unmarked) [Compound 28, (6Z,9Z,28Z,31Z)-heptatriaconta-6,9,28,31-tetraen-18-yl 3-(dimethylamino)propyl((Z)-hept-4-enyl)carbamate] | −68 |  | unexpectedly improved ApoB silencing activity
18 | CCCCC/C=C\C/C=C\CCCCCCCCCC(CCCCCCC/C=C\C/C=C\CCCCC)OC(=O)N(CC)CCN(C)C (centres unmarked) [Compound 29, (6Z,9Z,28Z,31Z)-heptatriaconta-6,9,28,31-tetraen-18-yl 2-(dimethylamino)ethyl(ethyl)carbamate] |  | −59 | 
19 | CCCCC/C=C\C/C=C\CCCCCCCCC(CCCCCCCC/C=C\C/C=C\CCCCC)OC(=O)N(C)CCCN(C)CC [Compound 30, (6Z,9Z,28Z,31Z)-heptatriaconta-6,9,28,31-tetraen-19-yl (3-(ethyl(methyl)amino)propyl)(methyl)carbamate] |  | −65 | 
20 | CCCCC/C=C\C/C=C\CCCCCCCCC(CCCCCCCC/C=C\C/C=C\CCCCC)OC(=O)N(C)CCCN(CC)CC [Compound 31, (6Z,9Z,28Z,31Z)-heptatriaconta-6,9,28,31-tetraen-19-yl (3-(diethylamino)propyl)(methyl)carbamate] |  | −62 | 
21 | CC/C=C\C/C=C\C/C=C\CCCCCCCCC(CCCCCCCC/C=C\C/C=C\C/C=C\CC)OCCCN(C)C [Compound 34, 3-((3Z,6Z,9Z,28Z,31Z,34Z)-heptatriaconta-3,6,9,28,31,34-hexaen-19-yloxy)-N,N-dimethylpropan-1-amine] | −41 |  | 
22 | CC/C=C\C/C=C\C/C=C\CCCCCCCCC(CCCCCCCC/C=C\C/C=C\C/C=C\CC)OCCCCN(C)C [Compound 35, 4-((3Z,6Z,9Z,28Z,31Z,34Z)-heptatriaconta-3,6,9,28,31,34-hexaen-19-yloxy)-N,N-dimethylbutan-1-amine] | −78 |  | unexpectedly improved ApoB silencing activity
23 | CCCCC/C=C/C/C=C/CCCCCCCCC(CCCCCCCC/C=C/C/C=C/CCCCC)OC(=O)CCCN(C)C [Compound 40, (6E,9E,28E,31E)-heptatriaconta-6,9,28,31-tetraen-19-yl 4-(dimethylamino)butanoate] |  | −58 | 
24 | CCCCCC/C=C/C=C\CCCCCCCCC(CCCCCCCC/C=C\C=C\CCCCCC)OCCCN(C)C [Compound 41, 3-((7E,9Z,28Z,30E)-heptatriaconta-7,9,28,30-tetraen-19-yloxy)-N,N-dimethylpropan-1-amine] | −52 |  | 
25 | CCCCC/C=C\C/C=C\CCCCCCCCC1(CCCCCCCC/C=C\C/C=C\CCCCC)OCC(CCN(C)C)O1 (centres unmarked) [Compound C2K, 2,2-dilinoleyl-4-(2-dimethylaminoethyl)-[1,3]-dioxolane, reference compound] | −51 | −66 | 
